Molecular target: T1, human EDG-1 (S1P1) (Homo sapiens, UniProt P21453)
T1 construct: c-myc (N); expressed in transfected cells
Assay: S1P1 (EDG-1) GTP [γ-35S] binding assay, membranes from CHO cells
Assay type: biochemical
Protocol: A. In vitro: GPCR Activation Assay Measuring GTP [γ-^35S] Binding to Membranes Prepared from CHO Cells Expressing Human EDG Receptors
S1P1 (EDG-1) GTP [γ-^35S] binding assay: Homogenized membranes are prepared from CHO cell clones stably expressing a human EDG-1 N-terminal c-myc tag. Cells are grown in suspension in two 850 cm^2 roller bottles for three or fours days before harvesting. The cells are centrifuged down, washed once with cold PBS, and resuspended in ≦20 ml of Buffer A (20 mM HEPES, pH 7.4, 10 mM EDTA, EDTA-free complete protease inhibitor cocktail [1 tablet/25 ml]). The cell suspension is homogenized on ice, using a Polytron homogenizer at 30000 rpm at three intervals of 15 seconds each. The homogenate is first centrifuged at 2000 rpm on a tabletop low speed centrifuge for 10 minutes. The supernatant, after passing through a cell strainer, is then re-centrifuged at 50,000×g for 25 minutes at 4° C. The pellet is resuspended into buffer B (15% glycerol, 20 mM HEPES, pH 7.4, 0.1 mM EDTA, EDTA-free complete protease inhibitor cocktail [1 tablet/10 ml]). Protein concentration of the preparation is determined using the BCA Protein Assay kit (Pierce) using BSA as standard. The membranes are aliquoted and kept frozen at −80° C.
Solutions of test compounds ranging from 10 mM to 0.01 nM are prepared in DMSO. S1P is diluted in 4% BSA solution as positive controls. The desired amount of membrane preparation is diluted with ice-cold assay buffer (20 mM HEPES, pH 7.4, 100 mM NaCl, 10 mM MgCl2, 0.1% Fatty acid-free BSA, 5 μM GDP) and vortexed well. 2 μl or less of compound is distributed into each well of a round-bottom 96-well polystyrene assay plate, followed by addition of 100 μl of diluted membranes (3-10 μg/well) and kept on ice until the addition of hot GTPγS. [^35S]-GTPγS is diluted 1:1000 (v/v) with cold assay buffer and 100 μl is added into each well. The reaction is carried out at room temperature for 90 minutes before the membranes are harvested onto Perkin-Elmer Unifilter® GF/B-96 filter plate using a Packard Filtermate Harvester. […]

T1 sequence (P21453 whole entry): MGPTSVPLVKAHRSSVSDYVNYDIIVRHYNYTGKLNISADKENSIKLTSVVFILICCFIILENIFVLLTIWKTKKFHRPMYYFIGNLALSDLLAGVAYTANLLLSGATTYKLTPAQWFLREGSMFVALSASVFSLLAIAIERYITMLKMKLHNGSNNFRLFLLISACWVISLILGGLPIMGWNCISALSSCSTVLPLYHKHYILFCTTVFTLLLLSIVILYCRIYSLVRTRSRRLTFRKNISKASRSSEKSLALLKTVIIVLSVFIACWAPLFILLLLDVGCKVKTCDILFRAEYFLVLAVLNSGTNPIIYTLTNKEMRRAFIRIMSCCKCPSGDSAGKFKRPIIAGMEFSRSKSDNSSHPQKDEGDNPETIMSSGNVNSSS

Row | SMILES | EC50 [nM]
1 | O=C(O)CCC(=O)Nc1ccc(-c2nc(-c3ccc(C4CCCCC4)c(C(F)(F)F)c3)no2)cc1 [Example 21] | < 1000
2 | O=C(O)CCNS(=O)(=O)c1ccc(-c2nc(-c3ccc(-c4ccccc4)c(C(F)(F)F)c3)no2)cc1 [Example 4, 3-{4-[3-(2-Trifluoromethyl-biphenyl-4-yl)-[1,2,4]oxadiazol-5-yl]-benzene-sulfonylamino}-propionic acid] | < 1000
3 | NS(=O)(=O)c1ccc(-c2nc(-c3ccc(-c4ccccc4)c(C(F)(F)F)c3)no2)cc1 [Example 13] | < 1000
